Reference: patent US8871789B2, “Method of preventing or treating viral infection” (The United States of America, as represented by the …, priority 2010, dated 2014)

Key:
HSV-1 [1] = assay: HSV-1 lytic viral yields from HFF cells; format: cell-based; design: reduction of viral yields: dose or concentration left out as unconfirmed; settings: HFF cells, HSV-1 0.1 PFU per cell, 24 hours; FIG. 14
Description: FIG. 14 is a bar graph showing viral yields from HFF cells treated with DMSO or ML324 for 3 hours and infected with HSV-1 (0.1 PFUper cell) for 24 hours in the presence of the drugs. *P<0.004, one-way ANOVA with Dunnett's post hoc test. Data are means±SEM.
HSV-1 lytic viral yields decrease in the presence of DMOG (FIG. 10). HFF cells were pretreated with DMSO control or JMJD2 inhibitor DMOG for 5 hrs and infected with 0.1 pfu/cell of HSV-1 for 24 hrs in the presence of DMSO or DMOG. The yield of infectious virus derived from each treatment were determined by tittering on Vero cells according to standard procedures.

HSV-1 [2] = format: cell-based, Balb/c mice; design: reduction of viral reactivation (viral yield): unit of the concentration uncertain
Description: FIG. 18 is a dot plot showing latently infected ganglia that were explanted in the presence of DMSO, ACV (100 mM), or ML324 (50 mM) for 48 hrs. Viral yields were determined from one half of each ganglia at 48 hrs (DMSO, ACV, ML324) and from the other half of each ganglia after drug reversal for an additional 72 hrs (ACV-R, ML324-R) [Wilcoxon matched pairs signed rank test, ACV vs ACV-R n=8, ML324 vs ML324-R n=10]. Data are means±SEM.
FIG. 19 is a dot plot showing viral yields from HSV-1 latently infected trigeminal ganglia that were explanted in the presence of DMSO, or 2 mM DMOG or 50 mM ML324 for 48 hours (DMSO versus DMOG: P=0.0015, Wilcoxon matched-pairs signed rank test; n=12; DMSO versus ML324: P<0.0001; n=20). Data are means±SEM.
Viral yields decrease from HSV-1 latently infected ganglia explanted in the presence of LSD1 or JMJD2 inhibitors (FIG. 11). Balb/c mice were infected with 5×10^6 PFU HSV-1 (strain F) per eye after corneal scarification. Latently infected mice were sacrificed 45 days post clearance of the primary infection and trigeminal ganglia were rapidly explanted into culture in the presence of 2 mM DMOG, 2 mM TCP, or control (DMSO or ACV, acyclovir) for 48 hours. Post explant incubation, the ganglia were homogenized and briefly sonicated. The reactivated viral yield of each ganglia was determined by titering the clarified supernatant on Vero cells. Statistical comparisons were made using Wilcoxon signed rank test (paired ganglia) with a statistical significance of <0.05. Each data point was the result of a single ganglia divided and treated in the presence and absence of DMSO and DMOG or DMSO and TCP. Therefore, a Wilcoxon signed rank test was used to assess differences between each treated and untreated sample. The significant difference between DMSO control and DMOG was p=0.0018. This test used an exact p-value for small sample sizes with an a level of 0.05. n=20. Analyses were made using Prism (V5.0a) and are expressed as the mean+/−s.e.m.

HSV-1 [3] = format: cell-based, mouse
Description: FIG. 20 is a dot plot showing latently infected trigeminal ganglia that were explanted in the presence of DMSO, 100 mM ACV, or 50 mM ML324 for 48 hours. The total number of UL29+ neurons per ganglia is graphed, representing the number of neurons undergoing viral reactivation. Data are means±SEM.

HSV-1 [4] = assay: MRC-5 cells, ML324 added at times relative to HSV-1 infection; format: cell-based; settings: added at 2 hours after infection; HSV-1 1.0 MOI; FIG. 17
Description: FIG. 17 is a line graph showing MRC-5 cells that were treated with DMSO or ML324 at the indicated time relative to infection with HSV-1 (1.0 MOI). Viral and cellular mRNA levels were determined at 4 hours after infection. Data are means±SEM.

[5] = 100 mM ACV or 50 mM ML324, 48 hours

In the case of `CN(C)CCCNC(=O)c1ccc(-c2cc(O)c3ncccc3c2)cc1` [Compound 4, N-(3-(dimethylamino)propyl)-4-(8-hydroxyquinolin-6-yl)benzamide], the “reduction of viral yields” value (HSV-1 [1]) is reported as about 5 logs, the “reduction of viral reactivation (viral yield)” value (HSV-1 [2]; 50 (unit uncertain), 48 hours explant, FIG. 19) is reported as 4.5 log and the “viral replication in ganglia after drug withdrawal” value (HSV-1 [2]; after ML324 withdrawal, additional 72 hrs, FIG. 18) is reported as “robust viral replication”. The “primary viral reactivation events” value (HSV-1 [3]; 50 mM ML324, 48 hours, FIG. 20) was “suppressed”, the “UL29+ cell clusters” value (HSV-1 [3]; [5]) was 2 clusters in 48 ganglia sections and the “isolated UL29+ neurons relative to DMSO” value (HSV-1 [3]; [5]) was “most significant reduction”. For the same molecule, the “reduction of IE gene transcription when added after infection” value (HSV-1 [4]) was over 50%.
